Measurements from patent publication US20240148767A1, “THE USE OF EMPAGLIFLOZIN FOR THE TREATMENT OF ULCERATIVE COLITIS AND CROHN'S DISEASE” (The Governors of the University of Alberta, priority 2021, published 2024).
Entries after “also recorded” stand apart in the source; their conditions may differ.

Assays:
murine macrophages = murine macrophages in vitro, cited from earlier work
[1] = cited from earlier work
human THP-1 macrophages = settings: pretreatment for 24 hours; cited from earlier work
[2] = healthy humans, dose matched to the human active dose; cited from earlier work
SGLT2 over SGLT1 = settings: cited from earlier work
[3] = test system: IL-10−/− mice with established colitis; assay: EMPA treatment of adult IL-10−/− mice with established colitis; format: in vivo, mouse
Text: Methods: In our colony, IL-10−/− mice begin to develop colitis between 8-12 weeks of age. […] Further, this dose was also chosen to match the active dose in humans by considering the differences in the metabolism and other pharmacokinetic parameters between mice and humans^55. The dose used in this study results in free plasma concentration of ˜20 nmol/L in mice^56 which is within the normal and safe range of that reported in humans^57-59. […] Adult IL-10^−/− mice with established colitis were treated with a daily gavage of EMPA (10 mg/kg; n=10) or vehicle (n=10) for 14 days. Disease activity was assessed by measurement of mouse weight, colonic weight and length, histological score, cytokine levels in colonic homogenate and lipocalin-2 levels in stool. To examine for possible direct effects of EMPA, colonic explants from wild-type and IL-10^−/− mice were incubated with increasing doses of EMPA (0.1-5 μM)±LPS for 2 hours and tissue levels of IL-1β and TNFα measured.
FIG. 4. Representative histological samples of colons. Colons were flushed with phosphate-buffered saline containing 0.1% gentamycin and immediately fixed in 10% v/v neutral buffered formalin. The fixed samples were paraffin-embedded, sectioned, and stained with hematoxylin and eosin. Disease scoring methods used were based on four scores: 1) epithelial hyperplasia (0-3), 2) enterocyte injury (0-3), 3) lymphocytes (0-2) and neutrophil infiltration (0-2) in the lamina propria. The total maximum histological score (10) is based on the sum of the individual scores. (A) control. (B) Empa.

[4] = mice, 10 mg/kg dose; cited from earlier work
[5] = EMPA 10 mg/kg daily gavage, 14 days, p=0.04

OC[C@H]1O[C@@H](c2ccc(Cl)c(Cc3ccc(O[C@H]4CCOC4)cc3)c2)[C@H](O)[C@@H](O)[C@@H]1O [EMPA, Empagliflozin]
expression of anti-inflammatory M2 markers (murine macrophages; AMPK-mediated mechanism): increased
LPS-induced ATP depletion (murine macrophages): prevented
LPS-induced TNFα and iNOS expression (murine macrophages): attenuated
time to peak levels ([1]; after a single dose): 1.5 h
bioavailability ([1]; humans): 78%
half-life ([1]; in humans): ~12 h
recovered in the feces as unchanged drug ([1]; in vivo): Approximately 40%
TNFα-stimulated chemokine release (human THP-1 macrophages): decreased
hypoglycemia [2]: does not cause hypoglycemia
selectivity for SGLT2 over SGLT1 (SGLT2 over SGLT1): ~2700 fold
lymphocytic infiltration into the lamina propria ([3]; EMPA 10 mg/kg daily gavage, 14 days): reduced
enterocyte injury (histological score) ([3]; EMPA 10 mg/kg daily gavage, 14 days, vs vehicle, p<0.01): no enterocyte injury; also recorded: significant decrease
total histological score ([3]; EMPA 10 mg/kg daily gavage, 14 days, vs vehicle, p=0.006): decreased
lamina propria neutrophils (histological score) ([3]; EMPA 10 mg/kg daily gavage, 14 days, vs vehicle, p=0.01): decreased
colonic weight to length ratio ([3]; EMPA 10 mg/kg daily gavage, 14 days, vs vehicle, p=0.019): decreased
fecal lipocalin-2 ([3]; EMPA 10 mg/kg daily gavage, 14 days, vs vehicle, p=0.03): decrease
colonic TNFα (real-time qPCR) ([3]; EMPA 10 mg/kg daily gavage, 14 days, p=0.02): significant decreases
colonic IFNγ (real-time qPCR) [3, 5]: significant decreases
colonic IL-1β (real-time qPCR) [3, 5]: significant decreases
body weight over the 14 days ([3]; EMPA 10 mg/kg daily gavage, vehicle treated mice continued to lose weight, p=0.04): maintained their weight
blood glucose levels in pilot experiments ([3]; EMPA 10 mg/kg dose, pilot experiments): no effect
blood glucose levels ([3]; EMPA-treated mice vs controls, 14 days): no significant differences
free plasma concentration [4]: ~20 nM
